Laboratory results from patent US8119998B2, “Methods and systems for in situ physicochemical property testing” (Pion, Inc., priority 2008, dated 2012).
Converted amounts (≈) assume the structure as drawn.

Assay: Miniaturized rotating disk dissolution and solubility of pressed pellet, biexponential fit
Type: physicochemical
Conditions: pressed pellet 3.9 mm, five replicate profiles, 180 selected points, FIG. 12
Description: This example is based on the dissolution and solubility characteristics of the model drug carbamazepine, with data collected on a prototype instrument, utilizing a miniaturized rotating disk of pressed compound held as a pellet in a small stainless steel die. The average diameter of the pellets of material was measured to be 3.9 mm, corresponding to a nominal area of 0.12 cm^2, and the minimal amount of compound needed to make such pellets was about 5 mg, although more may be used. In this example, the solution volume was 15 mL, larger than the preferred volume of 3 mL. Over 1100 concentration measurements were acquired, in five replicate dissolution profiles. […] The powder “burst” would be associated with a high surface area, but would be limited to a small quantity of material: [formula] […] 2 with respect to time, evaluated at t=to, in the units of μg/min (with PABL in cm/s units), is DR^max=(Cpowder·Apowder+[…]·60 [3] The factor of 60 accounts for the conversion of ABL permeability into cm/min units. Intrinsic dissolution rate (IDR) is calculated as IDR=DR^max/Aeff, where Aeff is the effective area of the solid phase in contact with bulk solution. The effective surface area is defined as Aeff=δApowder+(1-δ)[…], where δ=[…]). The IDR is the maximum flux of material entering the solution phase through the interface solid-liquid interface (often evaluated at time near zero). […]

SMILES: NC(=O)N1c2ccccc2C=Cc2ccccc21 [carbamazepine]
- IDR (intrinsic dissolution rate) (nominal area 0.12 cm^2, 15 mL): 25±1 μg/cm^2·min
- solubility (thermodynamic from solid, 15 mL, read-out: S (solubility)): 225 ± 6 µg/mL (≈ 952 µM)
